Each structure is given as a SMILES string. A value given as a limit tells only on which side of the number the result lay.

Eleven compounds from patent US7183312B2, “Taxanes having a C7 heterosubstituted acetate substituent” (FSU Research Foundation, Inc., priority 2000, dated 2007) can be followed below.

For the assay, the system named is HCT116. The experiment in a line: In vitro cytotoxicity measured by the cell colony formation assay. The format is cell-based. Conditions: HCT116 cells; incubated with drugs for 72 h at 37° C.; colonies counted after 7 days; ID50 = drug concentration producing 50% inhibition of colony formation; read-out: IN VITRO ID 50 (nm) HCT116. As for the experimental part:
In Vitro Cytotoxicity Measured by the Cell Colony Formation Assay
Four hundred cells (HCT116) were plated in 60 mm Petri dishes containing 2.7 mL of medium (modified McCoy's 5a medium containing 10% fetal bovine serum and 100 units/mL penicillin and 100 µg/mL streptomycin). The cells were incubated in a CO2 incubator at 37° C. for 5 h for attachment to the bottom of Petri dishes. The compounds identified in Example 2 were made up fresh in medium at ten times the final concentration, and then 0.3 mL of this stock solution was added to the 2.7 mL of medium in the dish. The cells were then incubated with drugs for 72 h at 37° C. At the end of incubation the drug-containing media were decanted, the dishes were rinsed with 4 mL of Hank's Balance Salt Solution (HBSS), 5 mL of fresh medium was added, and the dishes were returned to the incubator for colony formation. The cell colonies were counted using a colony counter after incubation for 7 days.
Take `C/C=C/C(=O)N[C@@H](c1ccco1)[C@@H](O)C(=O)O[C@H]1C[C@@]2(O)[C@@H](OC(=O)c3ccccc3)C3[C@](C)(C(=O)[C@H](O)C(=C1C)C2(C)C)[C@@H](OC(=O)COC)C[C@H]1OC[C@@]31OC(C)=O` (some centres unmarked) [Compound 5835]: the IC50 was less than 1 nM.

`CCC(C)(C)OC(=O)NC(c1ccco1)C(O)C(=O)OC1CC2(O)C(OC(=O)c3ccccc3)C3C4(OC(C)=O)COC4CC(OC(=O)COC)C3(C)C(=O)C(O)C(=C1C)C2(C)C` (centres unmarked) [Compound 6226, N-Debenzoyl-N-tert-amyloxycarbonyl-3′-desphenyl-3′-(2-furyl)-10-deacetyl-7-methoxyacetyl taxol]: the IC50 is less than 1 nM.

On to `CC(=O)OCC(=O)O[C@H]1C[C@H]2OC[C@@]2(OC(C)=O)C2[C@H](OC(=O)c3ccccc3)[C@]3(O)C[C@H](OC(=O)[C@H](O)[C@@H](NC(=O)C=C(C)C)c4ccco4)C(C)=C([C@@H](O)C(=O)[C@@]21C)C3(C)C` (some centres unmarked) [Compound 5544], for which the IC50 is less than 1 nM.

Take `CSCC(=O)O[C@H]1C[C@H]2OC[C@@]2(OC(C)=O)C2[C@H](OC(=O)c3ccccc3)[C@]3(O)C[C@H](OC(=O)[C@H](O)[C@@H](NC(=O)OC(C)(C)C)c4ccco4)C(C)=C([C@@H](O)C(=O)[C@@]21C)C3(C)C` (some centres unmarked) [Compound 5600]: the IC50 was less than 1 nM.

For the compound `COCC(=O)O[C@H]1C[C@H]2OC[C@@]2(OC(C)=O)C2[C@H](OC(=O)c3ccccc3)[C@]3(O)C[C@H](OC(=O)[C@H](O)[C@@H](NC(=O)C=C(C)C)c4ccco4)C(C)=C([C@@H](O)C(=O)[C@@]21C)C3(C)C` (some centres unmarked) [Compound 5474], the IC50 is less than 1 nM.

As to `CCC(C)(C)OC(=O)N[C@@H](c1ccco1)[C@@H](O)C(=O)O[C@H]1C[C@@]2(O)[C@@H](OC(=O)c3ccccc3)C3[C@](C)(C(=O)[C@H](O)C(=C1C)C2(C)C)[C@@H](OC(=O)COC(C)=O)C[C@H]1OC[C@@]31OC(C)=O` (some centres unmarked) [Compound 6353], the IC50 is less than 1 nM.

On to `CC(=O)OCC(=O)O[C@H]1C[C@H]2OC[C@@]2(OC(C)=O)C2[C@H](OC(=O)c3ccccc3)[C@]3(O)C[C@H](OC(=O)[C@H](O)[C@@H](NC(=O)OC(C)(C)C)c4ccco4)C(C)=C([C@@H](O)C(=O)[C@@]21C)C3(C)C` (some centres unmarked) [Compound 5622], for which the IC50 is less than 1 nM.

In the case of `CC(=O)O[C@@]12CO[C@@H]1C[C@H](OC(=O)COc1ccccc1)[C@@]1(C)C(=O)[C@H](O)C3=C(C)[C@@H](OC(=O)[C@H](O)[C@@H](NC(=O)C=C(C)C)c4ccco4)C[C@@](O)([C@@H](OC(=O)c4ccccc4)C12)C3(C)C` (some centres unmarked) [Compound 5555], the IC50 is less than 1 nM.

For `CC(=O)O[C@@]12CO[C@@H]1C[C@H](OC(=O)COc1ccccc1)[C@@]1(C)C(=O)[C@H](O)C3=C(C)[C@@H](OC(=O)[C@H](O)[C@@H](NC(=O)OC(C)(C)C)c4ccco4)C[C@@](O)([C@@H](OC(=O)c4ccccc4)C12)C3(C)C` (some centres unmarked) [Compound 5616], the IC50 was less than 1 nM.

Take `C/C=C/C(=O)N[C@@H](c1ccco1)[C@@H](O)C(=O)O[C@H]1C[C@@]2(O)[C@@H](OC(=O)c3ccccc3)C3[C@](C)(C(=O)[C@H](O)C(=C1C)C2(C)C)[C@@H](OC(=O)COc1ccccc1)C[C@H]1OC[C@@]31OC(C)=O` (some centres unmarked) [Compound 5811]: the IC50 is less than 1 nM.

On to `COCC(=O)O[C@H]1C[C@H]2OC[C@@]2(OC(C)=O)C2[C@H](OC(=O)c3ccccc3)[C@]3(O)C[C@H](OC(=O)[C@H](O)[C@@H](NC(=O)OC(C)(C)C)c4ccco4)C(C)=C([C@@H](O)C(=O)[C@@]21C)C3(C)C` (some centres unmarked) [Compound 5445], for which the IC50 is less than 1 nM.
